The target of the test is Bcl-XL (Homo sapiens, UniProt Q07817). It is filed as binding.
Sequence of Bcl-XL (Q07817 whole entry): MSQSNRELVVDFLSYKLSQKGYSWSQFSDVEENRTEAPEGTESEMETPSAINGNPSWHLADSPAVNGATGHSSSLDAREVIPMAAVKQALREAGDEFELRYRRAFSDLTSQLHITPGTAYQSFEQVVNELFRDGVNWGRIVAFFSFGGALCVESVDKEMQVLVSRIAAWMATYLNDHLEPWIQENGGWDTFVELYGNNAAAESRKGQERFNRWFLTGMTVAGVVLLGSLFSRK

In the case of `CC1(C)CCN(c2ccc(C(=O)NS(=O)(=O)c3ccc(NCCSc4ccccc4)c([N+](=O)[O-])c3)cc2)CC1` [SZ4TA2], the IC50 (usually the point on the concentration scale where inhibition reaches its midpoint) is 78.8 nM.

Source of the values: PMC2574679 (Journal of the American Chemical Society, 2008).
